Data on two compounds can be found in patent US9550000B2, “Compositions, methods, and systems for the synthesis and use of imaging agents” (Lantheus Medical Imaging, Inc., priority 2011, dated 2017).

Data set [1] concerns noradrenaline transporter (NAT) in SK-N-SH cells. Description: Competitive inhibition of Imaging Agent-1 uptake in SK-N-SH cells. The class given is cell-based, human. The conditions noted are these: Homo sapiens, 1 h, non-radioactive competitor 0.1-100 μM, 37° C., 60 minutes, read-out: IC50 for inhibition of Imaging Agent-1 cell uptake. How it is done: For the competitive inhibition assay, Imaging Agent-1 at 3.7 kBq was incubated in SK-N-SH cells with various concentrations (0.1, 1, 10, or 100 μM) of non-radioactive NA, MIBG or ^19F-Imaging Agent-1 (self) at 37° C. for 60 minutes. Similarly, following the incubation, Imaging Agent-1 cell uptake was determined. The IC50 value of each agent was determined using GraphPad software (v5).

The nature of data set [2]: Dofetilide induced ECG changes in sham control and regional cardiac denervated rabbits. The class given is in vivo, rabbit. The conditions noted are these: for Dofetilide induced events: PVC / Dofetilide induced events: TdP: 4 μg/kg/min iv infusion. How it is done:
Dofetilide is an antiarrhythmic drug used clinically and known to cause QTc prolongation and possible TdP. The role of cardiac denervation in dofetilide induced changes in QTc interval, premature ventricular contraction (PVC) and TdP was assessed in sham control and RCSD rabbits at 3 weeks after surgery. Rabbits were anesthetized with ketamine (40 mg/kg, im) and xylazine (9 mg/kg, im), and dofetilide (1 and 4 μg/kg/min, Haorui Pharma-Chem Inc. Edison, N.J.) was infused for 10 minutes via a catheter in the marginal ear vein. Electrocardiogram (ECG) in lead II configuration was recorded with Ponemah system (v4.3, Data Science International) before and during the drug infusion. Heart rate (HR) and QT interval were derived from ECG waveforms. The QT interval was corrected by Fridericia method (QTcf=QT/RR^1/3).

For data set [3] the following is noted: humans, 500 μg twice a day; cited from earlier work.

Turning to `NC[C@H](O)c1ccc(O)c(O)c1` [NA, noradrenaline], the IC50 (commonly the point on the concentration scale where inhibition reaches its midpoint) in data set [1] came out at 1090 nM.
`CN(CCOc1ccc(NS(C)(=O)=O)cc1)CCc1ccc(NS(C)(=O)=O)cc1` [dofetilide]: in data set [2] (Denervated rabbits (n = 8)), the “Dofetilide induced events: PVC” value was 5 (63%) and the “Dofetilide induced events: TdP” value is reported as 2 (25%). Moreover, in data set [2] (Sham rabbits (n = 6)), the “Dofetilide induced events: PVC” value was 3 (50%) and the “Dofetilide induced events: TdP” value was 1 (17%). The “ECG changes on intravenous administration” value in data set [2] (sham control and RCSD rabbits, 1 and 4 μg/kg/min for 10 minutes) is “induced bradycardia and QT prolongation”. The bioavailability – broadly, the share of a dose that reaches the circulation, judged against a reference dose that is usually intravenous – in data set [3] was above 90%.
